Positions of bridges follow the written chain, without caps; N, C: chain ends. Residues, ends and D or L forms follow the SMILES beside them.
Tests used:
[1] = Stability assay in rat plasma (Example 6); type: in vitro ADME; settings: 24 h at 37° C., read-out: peptide remaining in plasma
Protocol: Stability assay in human and rat plasma: Human or rat plasma (sample size 200 μL) was incubated at 37° C. for 5 min. 50 μL peptide stock solution (5 mg/mL) was added to the plasma. The vortexed reaction mixture was incubated at 37° C. Sample aliquots of 30 μL were taken from the reaction mixture at sequential intervals of 0 h, 1 h, 2 h, 4 h and 24 h and the sample reaction quenched immediately with 30 μL extraction buffer containing 50% Acetonitrile, 50% 0.1 M NaCl and 1% TFA. The quenched aliquots were cooled in ice for 5 min prior to centrifugation at 14,000 rpm for 15 min. 20 μl of the supernatant from each of the centrifuged aliquots was injected into RP-HPLC for analysis.

normal rats = assay: Hemodynamic parameters in normal anesthetized rats (Example 10)

CC[C@H](C)[C@H](NC(=O)[C@H](CCCCN)NC(=O)[C@H](CO)NC(=O)[C@H](CC(=O)O)NC(=O)[C@@H](N)CO)C(=O)NCC(=O)N[C@@H](CC(N)=O)C(=O)NCC(=O)N[C@H]1CSSC[C@@H](C(=O)N[C@@H](CC(N)=O)C(=O)N[C@@H](CCCNC(=N)N)C(=O)N[C@H](C(=O)N[C@@H](CCSC)C(=O)N[C@@H](CCC(N)=O)C(=O)N[C@@H](CC(N)=O)C(=O)N2CCC[C@H]2C(=O)N2CCC[C@H]2C(=O)N[C@@H](CCCCN)C(=O)N[C@@H](CCCCN)C(=O)N[C@@H](Cc2ccccc2)C(=O)N[C@@H](CO)C(=O)NCC(=O)N[C@@H](CCC(=O)O)C(=O)O)[C@@H](C)CC)NC(=O)CNC(=O)[C@H](CC(C)C)NC(=O)CNC(=O)[C@H](CO)NC(=O)[C@H](C(C)C)NC(=O)[C@H](CO)NC(=O)CNC(=O)[C@H]([C@@H](C)CC)NC(=O)[C@H](CCCNC(=N)N)NC(=O)[C@H](CC(=O)O)NC(=O)[C@H](CC(C)C)NC(=O)[C@@H]2CCCN2C(=O)[C@H](Cc2ccccc2)NC(=O)CNC(=O)[C@H](Cc2ccccc2)NC1=O [TNPc] (H-SDSKIGNGCFGFPLDRIGSVSGLGCNRIMQNPPKKFSGE-OH; disulfide 9-25)
remaining at 24 h, 1 mg/mL [1]: 76%
Blood Flow, mean change from control (normal rats; 50 pmol/kg/min, 30 min): -5.2 mL/min
Conductance, mean change from control (normal rats; 50 pmol/kg/min, 30 min): −1.1 ml/min/mmHg
Diastolic LVP, mean change from control (normal rats; 50 pmol/kg/min, 30 min): −1.4 mmHg
HCT, mean change from control (normal rats; 50 pmol/kg/min, 30 min): −1.7%
HR, mean change from control (normal rats; 50 pmol/kg/min, 30 min): −13.5 BPM
Mean BP, mean change from control (normal rats; 50 pmol/kg/min, 30 min): −21.0 mmHg
Urine Flow, mean change from control (normal rats; 50 pmol/kg/min, 30 min): 0.4 mL/h
Blood Flow, mean change from control (normal rats; 100 pmol/kg/min, 30 min): -7.3 mL/min
Conductance, mean change from control (normal rats; 100 pmol/kg/min, 30 min): −2.1 ml/min/mmHg
Diastolic LVP, mean change from control (normal rats; 100 pmol/kg/min, 30 min): −0.9 mmHg
HCT, mean change from control (normal rats; 100 pmol/kg/min, 30 min): −3.5%
HR, mean change from control (normal rats; 100 pmol/kg/min, 30 min): −23.6 BPM
Mean BP, mean change from control (normal rats; 100 pmol/kg/min, 30 min): −25.9 mmHg
Urine Flow, mean change from control (normal rats; 100 pmol/kg/min, 30 min): 0.9 mL/h
Blood Flow, mean change from control (normal rats; Recovery): -3.0 mL/min
Conductance, mean change from control (normal rats; Recovery): −1.3 ml/min/mmHg
Diastolic LVP, mean change from control (normal rats; Recovery): −0.6 mmHg
HCT, mean change from control (normal rats; Recovery): 3.1%
HR, mean change from control (normal rats; Recovery): −17.9 BPM
Mean BP, mean change from control (normal rats; Recovery): −4.1 mmHg
Urine Flow, mean change from control (normal rats; Recovery): 0.6 mL/h
Blood Flow, Average drug response SED (normal rats; average of the two doses): -6.2 mL/min
Conductance, Average drug response SED (normal rats; average of the two doses): −1.6 ml/min/mmHg
Diastolic LVP, Average drug response SED (normal rats; average of the two doses): −1.1 mmHg
HCT, Average drug response SED (normal rats; average of the two doses): −2.6%
HR, Average drug response SED (normal rats; average of the two doses): −18.6 BPM
Mean BP, Average drug response SED (normal rats; average of the two doses): −23.5 mmHg
Urine Flow, Average drug response SED (normal rats; average of the two doses): 0.7 mL/h

— patent US8058242B2, “Chimeric proteins with natriuretic activity” (The University of Queensland, priority 2004, dated 2011)
